This is an account of results in US8461348B2, “Heterocyclic derivative and use thereof” (Takeda Pharmaceutical Company Limited, priority 2008, dated 2013).

One assay deals with male SHR. Nature of the assay: Measurement of hypotensive action in vivo in SHR. The arrangement: species or system rat. The conditions noted are these: single oral administration, 30 mg/kg, 5 hr after administration. Here is the method:
Animal used was male SHR (32- to 40-week-old, SHR/Izm, Japan SLC, Inc.). Two days before drug administration, a cannula (SP10+SP45, Natsume Seisakusho Co., Ltd.) filled with heparin physiological saline (200 U/mL, Ajinomoto Pharma Co., Ltd.) was inserted from the femoral artery under anesthesia with pentobarbital Na (50 mg/kg, i.p., Kyoritsu Seiyaku Corporation) and dwelled. The other end of the cannula was subcutaneously passed and exposed on the back of the neck where it was fixed. After a recovery period, the artery dwelling cannula was connected to a pressure transducer (DTX Plus DT-XXAD, Japan Becton Dickinson) and output on a pen recorder (linear recorder WR3320-4µL, Graphtec Corporation) via a polygraph (AP-641G, Nihon Kohden Co.), and the blood pressure waveform was recorded. The heart rate was calculated from the blood pressure waveform. After stable blood pressure was obtained, a solvent or a drug was orally administered once, and average blood pressure and average heart rate were measured over time. The blood pressure was measured under fasting, and the rats were reared under free ingestion of feed and water except the blood pressure measurement day. The drug was suspended in 0.5% methylcellulose aqueous solution. The administration dose was 2 mL/kg.

The next assay deals with T1, Purified sGC (Homo sapiens, UniProt Q02153).
T1 sequence (Q02153 1-619): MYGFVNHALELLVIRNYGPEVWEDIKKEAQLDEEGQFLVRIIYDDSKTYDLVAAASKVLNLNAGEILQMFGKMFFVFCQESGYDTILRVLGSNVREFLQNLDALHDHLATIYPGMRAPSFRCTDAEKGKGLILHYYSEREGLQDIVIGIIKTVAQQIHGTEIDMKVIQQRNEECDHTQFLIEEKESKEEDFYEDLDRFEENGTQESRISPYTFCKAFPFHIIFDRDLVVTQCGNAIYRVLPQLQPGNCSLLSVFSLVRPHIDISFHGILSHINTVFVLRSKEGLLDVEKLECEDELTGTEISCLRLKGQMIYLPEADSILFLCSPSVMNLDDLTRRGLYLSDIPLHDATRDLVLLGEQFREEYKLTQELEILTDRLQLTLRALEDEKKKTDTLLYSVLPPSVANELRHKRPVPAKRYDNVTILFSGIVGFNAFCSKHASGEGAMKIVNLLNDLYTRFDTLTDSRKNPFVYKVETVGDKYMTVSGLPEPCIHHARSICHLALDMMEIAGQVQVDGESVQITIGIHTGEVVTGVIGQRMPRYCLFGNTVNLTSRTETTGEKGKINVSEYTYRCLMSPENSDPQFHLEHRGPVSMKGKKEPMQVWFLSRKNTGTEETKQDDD
T1 sequence (Q02108 1-690 partner): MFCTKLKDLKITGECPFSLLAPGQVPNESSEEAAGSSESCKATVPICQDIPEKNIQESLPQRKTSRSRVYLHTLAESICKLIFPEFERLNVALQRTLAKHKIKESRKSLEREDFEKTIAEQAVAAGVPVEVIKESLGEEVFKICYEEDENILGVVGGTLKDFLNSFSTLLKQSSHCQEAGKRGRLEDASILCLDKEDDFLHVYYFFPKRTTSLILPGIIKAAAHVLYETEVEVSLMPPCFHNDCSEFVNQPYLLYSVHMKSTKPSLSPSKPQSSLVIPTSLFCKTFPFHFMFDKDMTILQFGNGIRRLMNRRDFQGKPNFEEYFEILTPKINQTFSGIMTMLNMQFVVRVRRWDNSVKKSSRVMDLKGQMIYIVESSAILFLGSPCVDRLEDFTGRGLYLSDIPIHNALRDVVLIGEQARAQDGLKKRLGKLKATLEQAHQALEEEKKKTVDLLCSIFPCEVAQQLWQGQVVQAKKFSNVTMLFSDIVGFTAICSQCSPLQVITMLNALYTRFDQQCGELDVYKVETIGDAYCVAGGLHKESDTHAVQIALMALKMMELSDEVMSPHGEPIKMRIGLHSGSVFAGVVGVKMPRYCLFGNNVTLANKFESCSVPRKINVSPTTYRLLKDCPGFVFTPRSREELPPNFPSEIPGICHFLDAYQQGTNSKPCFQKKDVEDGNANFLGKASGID
In words: Measurement of sGC activation in vitro (cGMP production by purified sGC). Format: biochemical. As to conditions: 20 min; test compound diluted to 30 μM, 10 μL/well plus equal volumes of sGC and GTP; 20 min at room temperature; cGMP without compound (1% DMSO) = 100%; read-out: cGMP amount (%) in experiment system. Here is the method:
To evaluate sGC activation of each compound, the following in vitro tests were performed.
A test compound was diluted with a reaction buffer (50 mM HEPES, 5 mM MgCl2, 2 mM DTT, 0.5 mM IBMX (isobutylmethylxanthine), 0.01% BSA) to 30 μM (3% DMSO), and dispensed to a 384 well plate (manufactured by REMP) at 10 μL/well. Purified sGC was diluted with the reaction buffer to 240 ng/mL and added to the plate at 10 μL/well. Then, 120 μM GTP prepared with the reaction buffer was added to the reaction plate at 10 μL/well to initiate an enzyme reaction. After stirring at room temperature for 20 min to allow reaction, 125 mM Na2CO3 was added at 15 μL/well to quench the reaction. Thereafter, 125 mM Zn Acetate (zinc acetate) was added at 15 μL/well to allow precipitation of unreacted GTP. Then, the amount of the resulting cGMP contained in the supernatant was quantified using a CatchPoint cGMP assay kit (molecular devices). The method followed the protocol attached to the assay kit. For detection, Super Signal ELISA Femto (Thermo) was used, and the amount of luminescence was measured with ARVO (Perkinelmer). The sGC activity with addition of the compound was calculated using the amount of cGMP produced without addition of the compound (in the presence of 1% DMSO) as 100%.

On to `O=C(O)c1cnn(Cc2nc(-c3cccc(C(F)(F)F)c3)cs2)c1` [Example 1, 1-({4-[3-(trifluoromethyl)phenyl]-1,3-thiazol-2-yl}methyl)-1H-pyrazole-4-carboxylic acid], for which the “hypotension after 5 hr from the administration” value in the assay on male SHR is 15.5 mmHg. For the same compound, the activity at 10 µM at Purified sGC is more than 1000%.
For `O=C(O)c1cnn(Cc2nc(-c3cccc(C(F)(F)F)c3F)cs2)c1` [Example 52, 1-({4-[2-fluoro-3-(trifluoromethyl)phenyl]-1,3-thiazol-2-yl}methyl)-1H-pyrazole-4-carboxylic acid], in that order: 29.4 mmHg and more than 1000%.
